US20120142550A1, “Vanin 1 as a Peripheral Blood Oxidative Stress Sensor” (priority 2010, published 2012)

Test system: PBMC
Test: GSH/GSSG ratio by LC-MS/MS in treated PBMC samples
Format: cell-based, human
Details: 4 PBMC samples, 12 hours
Description: The levels of glutathione (GSH, reduced form) and glutathione disulfide (GSSG, oxidized form) in the whole blood of each subject were determined using a liquid chromatography-tandem mass spectrometry (LC-MS/MS)-based procedure modified from that of Norris et al. (J Chromatogr B Biomed Sci Appl. 2001; 762 (I):17-23) In brief, whole blood was mixed in a 1:4 (v:v) ratio with solution containing n-ethylmaleimide (NEM), sulfosalicylic acid, EDTA and methanol. Supernatants were diluted with stable-isotope internal standards (GSH-^13C, ^15N-NEM and GSSG-^13C, ^15N) and analyzed by LC-MS/MS, using an API 3000 Tandem Mass Spectrometer with Turbulon Ion Spray source, Shimadzu solvent delivery system and LEAP Technology autosampler. GSH (as GSH-NEM) and GSSG were monitored by transitions m/z 433→304 and m/z […] respectively, and data was acquired using Analyst 1.4.
Significance analysis of microarrays (SAM) was conducted for analysis of microarray data to identify differentially expressed genes. The Mann-Whitney test was used in the analysis of real-time PCR validation data. Unpaired t-test was conducted for the comparison of glutathione levels in ITP patients and controls. Paired t-test was carried out for the analysis of differences in GSH/GSSG ratios in cells with or without LPS or sodium arsenite treatments. […]

O=[As]O [sodium arsenite]
GSH/GSSG ratio compared with untreated cells (sodium arsenite 5 μM, p=0.01): statistically significant decrease

Lipopolysaccharide [LPS]
GSH/GSSG ratio compared with untreated cells (LPS 10 ng/ml, p=0.04): statistically significant decrease
